Experimental data from US20050048508A1, “Trehalose receptor and method for detecting trehalose with the same” (KABUSHIKI KAISHA HAYASHIBARA SEIBUTSU KAGAKU KENKYUJO, priority 2002, published 2005).

Molecular target: T1, T1R2 with G protein α-subunits (α15 and α16/Z chimeric protein) (Mus musculus, UniProt Q925I4, E350G/G527D/P352R/R175Q)
T1 construct: expressed in transfected cells; host or cells: 293 cells, RCB 1637 (human embryonic kidney)
T1 sequence (Q925I4 20-843 R175Q/E350G/P352R/G527D): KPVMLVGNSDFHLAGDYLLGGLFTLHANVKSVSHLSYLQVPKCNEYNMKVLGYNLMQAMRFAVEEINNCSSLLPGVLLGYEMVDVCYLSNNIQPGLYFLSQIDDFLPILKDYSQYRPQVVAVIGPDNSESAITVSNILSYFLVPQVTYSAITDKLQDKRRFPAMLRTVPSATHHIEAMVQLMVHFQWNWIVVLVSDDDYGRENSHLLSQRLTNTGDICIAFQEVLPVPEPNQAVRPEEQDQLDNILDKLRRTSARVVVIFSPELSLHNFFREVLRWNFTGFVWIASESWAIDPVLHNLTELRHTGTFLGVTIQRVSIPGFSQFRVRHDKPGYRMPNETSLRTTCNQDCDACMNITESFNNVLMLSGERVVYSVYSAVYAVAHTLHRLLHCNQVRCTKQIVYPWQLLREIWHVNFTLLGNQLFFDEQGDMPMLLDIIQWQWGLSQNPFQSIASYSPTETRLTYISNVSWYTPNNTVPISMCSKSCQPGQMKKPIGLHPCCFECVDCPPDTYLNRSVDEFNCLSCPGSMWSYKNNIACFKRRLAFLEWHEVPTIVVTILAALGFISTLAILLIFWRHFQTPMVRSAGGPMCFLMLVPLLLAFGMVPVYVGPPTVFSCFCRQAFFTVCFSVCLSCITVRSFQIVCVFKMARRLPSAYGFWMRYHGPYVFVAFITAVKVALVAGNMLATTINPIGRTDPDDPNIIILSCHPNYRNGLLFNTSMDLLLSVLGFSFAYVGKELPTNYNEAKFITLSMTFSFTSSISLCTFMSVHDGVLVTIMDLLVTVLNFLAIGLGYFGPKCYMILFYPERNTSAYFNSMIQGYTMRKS
Test: Intracellular calcium ion assay, 293 cells coexpressing G protein α-subunits and T1R2
Assay type: cell-based
Conditions: 293 cells: T1R2 + G protein α-subunits; 0.67 ml of 1 M saccharide solution added to 2 ml cell suspension; FLUO-4 AM
Description: The coexpression vector for the G protein α-subunit α15 and the G protein α16/Z chimeric protein (hereinafter designated as “G protein α-subunits”) obtained in Example 1-3 was gene transferred to 293 cells, RCB 1637, a human embryonic kidney cell line, available from the Riken Bioresource Center, Ibaraki, Japan, by conventional lipofection. The gene transferred cells were suspended in Dulbecco's Modified Eagle's Medium (D-MEM) supplemented with 1 mg/L of “PUROMYCIN”, a trade mane of puromycin commercialized by Edge Biosystems, MD, USA, and 10% (v/v) of fetal calf serum to give a cell density of 2×10^6 cells/ml and cultured in a plastic petri dish for cell culture. […]
The captioned reactivity test was conducted according to a conventional intracellular calcium ion assay: 293 Cells prepared in Example 3, capable of coexpressing the G protein α-subunits and the sweet taste receptor(s), were cultured in a plastic petri dish for cell culture until reaching its confluent phase. […] Two milliliters of the resultant cell suspension was injected into a glass cuvette, commercialized by Hitachi, Ltd., Tokyo, Japan, and analyzed on “HITACHI 650-40”, a fluorescence spectrophotometer commercialized by Hitachi, Ltd., Tokyo, Japan. […]

Influx of calcium ion | Structure (SMILES)
Negative | OC[C@H]1O[C@@](CO)(O[C@H]2O[C@H](CO)[C@@H](O)[C@H](O)[C@H]2O)[C@@H](O)[C@@H]1O [Sucrose, reference compound]
Negative | OC[C@H]1O[C@H](O[C@H]2O[C@H](CO)[C@@H](O)[C@H](O)[C@H]2O)[C@H](O)[C@@H](O)[C@@H]1O [Trehalose]
